Measured values from article PMC10392906 (Advances and Applications in Bioinformatics and Chemistry : …, 2023).

Target: T1, pancreatic porcine α-amylase (Sus scrofa, UniProt P00690)
T1 sequence (P00690 16-511): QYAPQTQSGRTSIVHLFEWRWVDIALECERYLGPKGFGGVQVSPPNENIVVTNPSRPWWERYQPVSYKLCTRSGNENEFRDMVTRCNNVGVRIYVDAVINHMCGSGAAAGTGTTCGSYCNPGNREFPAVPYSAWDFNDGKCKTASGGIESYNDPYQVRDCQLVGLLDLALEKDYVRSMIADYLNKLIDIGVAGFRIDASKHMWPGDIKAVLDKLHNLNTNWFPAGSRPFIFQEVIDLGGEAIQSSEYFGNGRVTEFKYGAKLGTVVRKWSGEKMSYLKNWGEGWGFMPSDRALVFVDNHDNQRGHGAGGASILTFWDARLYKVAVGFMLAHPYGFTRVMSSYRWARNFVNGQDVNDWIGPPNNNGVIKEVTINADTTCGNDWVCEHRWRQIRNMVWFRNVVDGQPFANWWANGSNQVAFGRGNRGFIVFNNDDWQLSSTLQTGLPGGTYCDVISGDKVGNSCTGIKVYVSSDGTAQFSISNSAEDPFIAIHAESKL
Test: α-Amylase inhibitory assay
Type: biochemical
Settings: for inhibition at 10 µg/mL: read-out: % of Inhibition of α-amylase (Mean ± S.D.), 10 µg/mL

| % of Inhibition of α-amylase (Mean ± S.D.) (10 µg/mL) | inhibition at 10 µg/mL | α-amylase inhibitory effect better than acarbose (versus acarbose) | Compound |
| --- | --- | --- | --- |
| 85.32±0.36% | – | – | 4-(-2-(3-(4-(Dimethylamino)phenyl)-4,5-Dihydro-1H-Pyrazol-5-yl)vinyl)-2-Methoxyphenol [Compound 8] |
| – | 85.17 ± 0.55% | – | COc1cc(C=Cc2cc(-c3ccccc3)nc(O)n2)ccc1O [Compound 11, 4-(4-Hydroxy-3-Methoxystyryl)-6-Phenylpyrimidin-2-ol] |
| – | 87.15 ± 0.46% | up to 2 fold | COc1cc(C=CC(=O)CC(c2ccc(N(C)C)cc2)n2ccnc2)ccc1O (stereo not shown) [Compound 16, 5-(4-(Dimethylamino)phenyl)-1-(4-Hydroxy-3-Methoxyphenyl)-5-(1H-Imidazol-1-yl)pent-1-En-3-One] |
